Measurements taken from ChEMBL document CHEMBL1154316, “Structure-activity relationship study of EphB3 receptor tyrosine kinase inhibitors” (Bioorg Med Chem Lett, 2009).

Key:
[1] = Half life in mouse liver microsomes at 3 uM measured up to 60 mins; type: ADME, Microsome; conditions: for half-life at 3 µM: liver microsomes
[2] = Intrinsic clearance in mouse liver microsomes assessed as per mg of protein at 3 uM measured up to 60 mins; type: ADME, Microsome; conditions: for microsomal CLint at 3 µM: liver microsomes

Row | SMILES | half-life at 3 µM [1] | microsomal CLint at 3 µM [2] | t1/2 ([1]; microsomes, 1 h, 3 µM) | CL ([2]; microsomes, 1 h, 3 µM)
1 | O=C(Nc1ccccc1Cl)c1cnn2ccc(-c3ccccc3)cc12 | 27 min | 51 µL/min/mg | – | –
2 | O=C(Nc1ccccc1Cl)c1cnn2ccccc12 | – | – | 5.3 min | 261 µL/min/mg
3 | O=C(Nc1ccccc1Cl)c1cnn2ccc(N3CCCCC3)cc12 | 8.3 min | 167 µL/min/mg | – | –

Results, then the compound that gave them:

Row | half-life at 3 µM [1] | microsomal CLint at 3 µM [2] | t1/2 ([1]; microsomes, 1 h, 3 µM) | CL ([2]; microsomes, 1 h, 3 µM) | SMILES
4 | 348 min | – | – | – | O=C(Nc1ccccc1Cl)c1cnc2ccc(C3CCNCC3)cn12.O=C(O)C(=O)O
5 | 20 min | 71 µL/min/mg | – | – | O=C(Nc1ccccc1Cl)c1cnc2ccc(N3CCCCC3)cn12
6 | 53 min | 26 µL/min/mg | – | – | O=C(Nc1ccccc1Cl)c1cnc2ccc(-c3ccccc3)cn12
7 | 3.8 min | 361 µL/min/mg | – | – | O=C(Nc1ccccc1Cl)c1cnc2ccccn12
